Common to all, as to format: in vivo
Assay [1] concerns Botrytis cinerea. Description: Test Example 2: curative effect on Botrytis disease of cucumber. As to conditions: cucumber (Sagami Hanjiro), wettable powder, 200 ppm foliar spray after inoculation, 12° C. for 2 days under high humidity. As to the method:
(§1) The area of lesions on the test plants at testing was visually observed, and the control effect was evaluated by comparing the area of lesions on test plants treated with the invented compound with the area of lesions on untreated plants.
Test for showing curative effect on Botrytis disease of cucumber (Botrytis cinerea):
Sand soil was packed in a plastic pot, and seeds of cucumber (variety: Sagami Hanjiro) were sowed therein and grown for 12 days in a greenhouse. A PDA medium containing spores of Botrytis cinerea was placed on the surface of leaves of the cucumber to inoculate the surface of leaves of the cucumber. Then, the wettable powder of each of the invented compounds (1) and (2) and the comparative compound (A) was diluted with water to a concentration of 200 ppm and was sprayed onto the foliage of the cucumber so that a sufficient amount of the compound would be applied to the surface of leaves of the cucumber. After spraying, the plant was air-dried and left at 12° C. for 2 days under high humidity, and then the area of lesions was examined.
As a result, the lesion area on the plant treated with the invented compounds (1) and (2) was respectively less than 11% and less than 15% of the lesion area on the plant of untreated plant. The lesion area on the plant treated with the comparative compound (A) was 98% of the untreated plant.

For assay [2], the system named is Magnaporthe grisea. As to conditions: rice (Nihonbare), flowable formulation, 500 ppm foliar spray before inoculation, 5 days after inoculation.
Assay [3] deals with Botrytis cinerea. Description: Test Example 1: preventive effect on Botrytis disease of cucumber. As to conditions: cucumber (Sagami Hanjiro), flowable formulation, 200 ppm foliar spray before inoculation, 12° C. for 5 days under high humidity. Here is the method:
as §1
Test for showing preventive effect on Botrytis disease of cucumber (Botrytis cinerea):
Sand soil was packed in a plastic pot, and seeds of cucumber (variety: Sagami Hanjiro) were sowed therein and grown for 12 days in a greenhouse. Each of the invented compounds (1)-(5) and the comparative compound (A) was formulated into flowable formulation in accordance with Formulation Example 6, and it was diluted with water to a given concentration (200 ppm) and was sprayed onto the foliage of the cucumber so that a sufficient amount of the compound would be applied to the surface of leaves of the cucumber. After spraying, the plant was air-dried and PDA medium containing spores of Botrytis cinerea was placed on the surface of leaves of the cucumber. After the inoculation, the plant was left at 12° C. for 5 days under high humidity, and then the area of lesions was examined. As a result, the lesion area on the plant treated with the invented compounds (1)-(5) was less than 10% of the lesion area on the untreated plant. The lesion area on the plant treated with the comparative compound (A) was 98% of the untreated plant.

Take `COc1cccc(CNC(=O)c2ccc3ncccc3c2)c1F` [invented compound (1), N-(2-fluoro-3-methoxyphenyl)methyl-quinoline-6-carboxamide]: the “lesion area on the treated plant as % of the lesion area on the untreated plant” value (from here on “lesion area on the treated plant as %”) in assay [1] was “less than 11%”.

As for `CC(C)CCOc1cccc(CNC(=O)c2ccc3ncccc3c2)c1` [comparative compound (A), N-(3-(3-methylbutoxy)phenyl)methyl-quinoline-6-carboxamide], the “lesion area on the treated plant as %” value in assay [2], in assay [1] and in assay [3] was 98% throughout.

For `CCOc1cccc(CNC(=O)c2ccc3ncccc3c2)c1F` [invented compound (2), N-(3-ethoxy-2-fluorophenyl)methyl-quinoline-6-carboxamide], the “lesion area on the treated plant as %” value in assay [1] is listed as “less than 15%”.

These data come from US20100227884A1 (priority 2007, published 2010).
